Measurements taken from patent US8173639B2, “Isoquinolinone derivatives as NK3 antagonists” (H. Lundbeck A/S, priority 2007, dated 2012).

Key:
[1] = biological target: T1, human NK3 receptor (Homo sapiens, UniProt P29371); experiment: NK3 receptor binding assay (SPA-based competition binding, 125I-NKB); details: table of Example 10; obtained as described in Example 9; read-out: Affinity Ki
T1 construct: expressed in transfected cells; membrane preparation
T1 sequence (P29371 1-465): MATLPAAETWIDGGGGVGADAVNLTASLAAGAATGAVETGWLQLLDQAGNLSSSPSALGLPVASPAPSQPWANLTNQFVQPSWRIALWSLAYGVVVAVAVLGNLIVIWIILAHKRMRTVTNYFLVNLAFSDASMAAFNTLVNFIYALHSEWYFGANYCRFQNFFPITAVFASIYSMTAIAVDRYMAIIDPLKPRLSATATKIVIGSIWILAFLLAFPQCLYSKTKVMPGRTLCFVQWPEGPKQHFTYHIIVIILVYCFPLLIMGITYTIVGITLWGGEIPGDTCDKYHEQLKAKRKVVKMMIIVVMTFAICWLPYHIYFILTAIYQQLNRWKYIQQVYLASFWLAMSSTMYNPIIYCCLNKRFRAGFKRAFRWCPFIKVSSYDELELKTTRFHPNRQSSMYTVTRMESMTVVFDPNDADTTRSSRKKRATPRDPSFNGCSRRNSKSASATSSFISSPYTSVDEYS
Method: Membranepreparation: BHK cells stably expressing the human NK3 receptor were seeded in harvesting plates in Dulbeccos MEM containing GlutaMax (862 mg/l), 1 mM sodium pyruvate, 10% fetal calf serum, 1% Pen/Strep, 1 mg/ml G418 and were grown at 34° C. in a humidified atmosphere containing 10% CO2. To increase receptor expression, 10 μM trichotatin A was added to the media 24 hours before harvest of the cells at a confluency of app 90%. Prior to the harvesting, the cells were washed twice with PBS without Mg^2+ or Ca^2+ and subsequently scrapped of in 10 ml PBS pr harvesting plate. The cells suspension were centrifuged at 1500×G in three minutes before resuspension in 15 mM Tris-HCl pH 7.5 buffer containing 2 mM MgCl2; 0.3 mM EDTA and 1 mM EGTA (buffer A). The cell suspension was homogenised and subsequently centrifuged at 4000×G in 30 minutes. The membrane-pellet was resuspended in buffer A containing 250 mM sucrose, aliquoted and stored at −80° C.
Affinity assay description: The assay was performed as a SPA-based competition-binding assay in a 50 mM Tris pH 7.4 assay buffer containing 120 mM NaCl, 3 mM MnCl2, 40 μg/ml bacitracin, 2 μg/ml Chymostatin, 1 μg/ml Phosphoramidon and 4 μg/ml Leupeptin. […] The assay plate was subsequently under agitation incubated for 90 min at RT. The plate was centrifugated 10 minutes at 500×G and counted in a topcounter 5 minutes pr well.

[2] = biological target: T1, human NK3 receptor; experiment: NK3 receptor efficacy and potency assay (FLIPR Calcium 4, BHK cells); assay type: cell-based; details: read-out: Potency cIC50
Method: BHK cells stably expressing the human NK3 receptor were seeded in 100 μl media in black walled clear-base 96-wells plates (Costar) aiming at a confluency of 95-100% at the day of assay. The assay was performed according to the FLIPR Calcium 4 Assay kit (Molecular Devices). At the day of the assay, the media was removed and the cells were washed once with the HBSS buffer (Hanks BSS buffer, pH 7.4 containing 20 mM Hepes) before 100 μl of a solution of the calcium assay reagent dissolved in the HBSS buffer containing 2.5 mM probinicid was added to the cells. The plates were incubated for 60 min at 34° C., 10% CO2 before use in the FLIPR for examination of fluorescence.
For efficacy and potency evaluation of compounds, these were diluted in HBSS buffer prior to test. For test of agonist activity, 25 μl of the diluted compound solution was added and the plate was analyzed for 5 minutes in the FLIPR. […] The plates were subsequently analyzed for 5 minutes before the assay was terminated. The maximal increase in fluorescence over background following each ligand addition was determined.

[3] = cited from earlier work

SMILES | Ki [1] [nM] | IC50 [2] [nM] | effect in clinical trials versus placebo ([3]; in particular on positive symptoms of psychosis) | effect on cognitive behaviour in clinical trials ([3]; schizophrenics)
CC[C@H](NC(=O)c1c(CN2CCOCC2)n(-c2ccccc2)c(=O)c2ccccc12)c1ccccc1 [Example 2r, 3-Morpholin-4-ylmethyl-1-oxo-2-phenyl-1,2-dihydro-isoquinoline-4-carboxylic acid ((S)-1-phenyl-propyl)-amide] | 320 | 420 | – | –
CC(=O)N(C)C1(c2ccccc2)CCN(CCC[C@]2(c3ccc(Cl)c(Cl)c3)CCCN(C(=O)c3ccccc3)C2)CC1 [Osanetant, osanetant] | – | – | superior to placebo | –
CC[C@H](NC(=O)c1c(CN2Cc3ccccc3C2)n(-c2ccccc2)c(=O)c2ccccc12)c1ccccc1 [Example 2bn, 3-(1,3-Dihydro-isoindol-2-ylmethyl)-1-oxo-2-phenyl-1,2-dihydro-isoquinoline-4-carboxylic acid ((S)-1-phenyl-propyl)-amide] | 160 | 300 | – | –
CC[C@H](NC(=O)c1c(O)c(-c2ccccc2)nc2ccccc12)c1ccccc1 [talnetant] | – | – | – | ameliorate the cognitive behaviour of schizophrenics
CC[C@H](NC(=O)c1c(CN2CC(C)OC(C)C2)n(-c2ccccc2)c(=O)c2ccccc12)c1ccccc1 (stereo partly drawn) [Example 2s, 3-(2,6-Dimethyl-morpholin-4-ylmethyl)-1-oxo-2-phenyl-1,2-dihydro-isoquinoline-4-carboxylic acid ((S)-1-phenyl-propyl)-amide] | 200 | 340 | – | –
CC[C@H](NC(=O)c1c(CN2CCCNCC2)n(-c2ccccc2)c(=O)c2ccccc12)c1ccccc1 [Example 2cz, 3-[1,4]Diazepan-1-ylmethyl-1-oxo-2-phenyl-1,2-dihydro-isoquinoline-4-carboxylic acid ((S)-1-phenyl-propyl)-amide] | 76 | 49 | – | –
CC[C@H](NC(=O)c1c(CN2CCc3ccccc3C2)n(-c2ccccc2)c(=O)c2ccccc12)c1ccccc1 [Example 2bg, 3-(3,4-Dihydro-1H-isoquinolin-2-ylmethyl)-1-oxo-2-phenyl-1,2-dihydro-isoquinoline-4-carboxylic acid ((S)-1-phenyl-propyl)-amide] | 160 | 220 | – | –
